The numbers were not newly measured in patent US20210069174A1, “COMPOSITIONS AND METHODS FOR TREATMENT OF CYSTIC FIBROSIS” (Vertex Pharmaceuticals Incorporated, priority 2017, published 2021), which cites them from elsewhere.

As a reminder, the EC30 is the point of the concentration-response curve where the effect stands at 30%.

This series concerns CFTR. As to conditions: CFTR modulator; disclosed in PCT Publication No. WO 2016/057572.

Bounds are passed on as bounds.

Consider `CC(C)COc1cc(F)cc(-c2ccc(C(=O)NS(=O)(=O)c3ccccc3)c(N3C[C@@H](C)CC3(C)C)n2)c1` [Compound I, N-(benzenesulfonyl)-6-(3-fluoro-5-isobutoxy-phenyl)-2-[(4S)-2,2,4-trimethylpyrrolidin-1-yl]pyridine-3-carboxamide], for which the EC30 is less than 3000 nM.
